Experimental data: article PMC4937426, “Dcsbis (PA2771) from Pseudomonas aeruginosa is a highly active diguanylate cyclase with unique activity regulation” (Scientific Reports, 2016)

Experiments:
[1] = test system: Nc1nc2c(ncn2[C@@H]2O[C@H](COP(=O)(O)OP(=O)(O)OP(=O)(O)O)[C@@H](O)[C@H]2O)c(=O)[nH]1; experiment: purified protein; details: without c-di-GMP; 128-512 μM GTP
[2] = biological target: T1, Dcsbis-GGDEF; Dcsbis (173-341) (Pseudomonas aeruginosa, UniProt Q9I072); experiment: X-ray crystal structure, […] Å; assay type: binding; details: I-site; two mutually intercalated c-di-GMP molecules bridging a GGDEF dimer; Arg251, Asp254, Arg271, Arg282
T1 construct: gene PA2771

[3] = biological target: T2, Dcsbis (PA2771), full-length (Pseudomonas aeruginosa, UniProt Q9I072); experiment: coupled spectrophotometric pyrophosphate assay, Lineweaver-Burk with […] c-di-GMP; assay type: biochemical; details: GTP substrate; product inhibition, mainly competitive; Ki not given
T2 construct: homodimer

WspR = WspR (Pseudomonas aeruginosa, UniProt Q9HXT9); experiment: coupled spectrophotometric pyrophosphate assay; assay type: biochemical; details: turnover only, same molar concentration as Dcsbis
[4] = biological target: T1, Dcsbis-GGDEF; Dcsbis (173-341); experiment: coupled spectrophotometric pyrophosphate assay; assay type: biochemical; details: turnover only (residual activity)

T1 sequence (Q9I072 entry or part of it): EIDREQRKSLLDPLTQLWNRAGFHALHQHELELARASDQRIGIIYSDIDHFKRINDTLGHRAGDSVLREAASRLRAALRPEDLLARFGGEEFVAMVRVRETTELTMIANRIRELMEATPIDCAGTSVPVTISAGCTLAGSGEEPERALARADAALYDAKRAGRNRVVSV
T2 sequence (Q9I072 entry or part of it): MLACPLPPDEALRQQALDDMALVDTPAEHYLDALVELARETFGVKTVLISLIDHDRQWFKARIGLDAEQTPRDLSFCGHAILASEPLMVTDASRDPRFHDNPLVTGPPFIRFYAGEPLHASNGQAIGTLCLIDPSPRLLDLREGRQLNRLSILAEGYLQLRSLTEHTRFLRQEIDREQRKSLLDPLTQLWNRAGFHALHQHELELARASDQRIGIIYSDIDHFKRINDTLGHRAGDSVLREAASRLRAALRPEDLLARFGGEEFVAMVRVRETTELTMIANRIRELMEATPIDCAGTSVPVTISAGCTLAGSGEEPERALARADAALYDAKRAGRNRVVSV
Sequence of WspR (Q9HXT9 entry or part of it): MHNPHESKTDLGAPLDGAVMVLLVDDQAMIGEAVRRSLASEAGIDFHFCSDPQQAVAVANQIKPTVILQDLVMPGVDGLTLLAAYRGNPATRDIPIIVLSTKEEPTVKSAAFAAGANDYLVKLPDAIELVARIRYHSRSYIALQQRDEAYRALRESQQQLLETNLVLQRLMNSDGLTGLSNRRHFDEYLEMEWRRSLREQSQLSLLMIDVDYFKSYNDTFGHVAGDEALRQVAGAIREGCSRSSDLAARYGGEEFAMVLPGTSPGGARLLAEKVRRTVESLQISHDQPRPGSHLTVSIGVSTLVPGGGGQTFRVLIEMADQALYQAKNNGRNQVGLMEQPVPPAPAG

Dcsbis (PA2771), full-length (Pseudomonas aeruginosa PAO1)
Km [1]: 88 µM

Nc1nc2c(ncn2[C@@H]2O[C@@H]3COP(=O)(O)O[C@H]4[C@@H](O)[C@H](n5cnc6c(=O)[nH]c(N)nc65)O[C@@H]4COP(=O)(O)O[C@H]3[C@H]2O)c(=O)[nH]1 [c-di-GMP]
X-ray crystal structure, 2.5 Å [2]: This extra density may be explained by building in two mutually intercalated c-di-GMP molecules
coupled spectrophotometric pyrophosphate assay, Lineweaver-Burk with 50 μM c-di- [3]: The greatly increased Km suggests that c-di-GMP mainly binds to the active site

Nc1nc2c(ncn2[C@@H]2O[C@H](COP(=O)(O)OP(=O)(O)OP(=O)(O)O)[C@@H](O)[C@H]2O)c(=O)[nH]1 [GTP]
coupled spectrophotometric pyrophosphate assay (WspR): DGC activity assays were performed for the three proteins at the same molar concentration
coupled spectrophotometric pyrophosphate assay [4]: the GGDEF domain of Dcsbis, compared with the full-length Dcsbis, exhibited only residual DGC activity
